Data: patent publication US8969395B2, “Triterpenoid derivatives useful as antiproliferative agents” (Universidade de Coimbra, priority 2009, dated 2015)

Columns and labels:
HepG2 cells = assay: Cell cycle analysis by flow cytometry (FACS, PI), HepG2; assay type: cell-based, human; details: for Phase of cell cycle (% of cells) G0/G1 / Phase of cell cycle (% of cells) G2/M / Phase of cell cycle (% of cells) S: HepG2, compound at its IC50, 72 h; for decrease in the percentage of cells in the G0/G1 phase / increase in the population in S phase: HepG2, with respect to untreated cells, at IC50, 72 h
Procedure: (§1) The effects on the cell cycle of some of these compounds were assessed through flow cytometry by using a fluorescence-activated cell sorter (FACS) (Table 5 below). For this assay 2.3×10^5 HepG2 cells/well, 2.9×10^4 HeLa cells/well, 1.6×10^5 Jurkat cells/well and 1.4×10^5 Chang liver cells/well were plated in 6 well plates with 2 ml of medium. The number of cells was determined by the relationship number of cells/area wells, considering the number of cells that were cultured in 96-well plates. […] Chang liver cells were incubated with compounds 20, […] at concentrations corresponding to the IC80 determined for HepG2 at 72 h. Following 72 h. of incubation, cells were harvested by mild trypsinization, collected by centrifugation and stained in ice-cold Tris-buffered saline (TBS), containing 1 mg/ml PI, 10 mg/ml RNAse free of DNAase and 0.1% Igepal CA-630 for 1 h at 4° C. FACS analysis was carried out at 488 nm in an Epics XL flow cytometer (Coulter Corporation, Hialeah, Fla.). Data from 8×10^3 cells were collected and analyzed using Multicycle program (Phoenix Flow Systems, San Diego, Calif.). All experiments were performed three times with three replicates per experiment. […] To explore the selectivity of the effect on tumor cells, we also tested compounds 20, 44 and 46 in a non-malignant cell line. Chang liver cells were treated with the compounds at the IC80 values determined for HepG2 after 72 h of incubation and no effect was observed, indicating a selective effect of these agents (Table 5 below).

[1] = system: Chang liver (human normal liver cells); assay: Cytotoxic activity against non-tumoral cell line, MTT assay; assay type: cell-based; details: 72 h, mean ±SD
Procedure: The cytotoxic of compounds of formulas (I) and (II) 14-50 was assessed towards human cancer (HepG2, HeLa and Jurkat) cell lines (Table 3 below). Compounds presented on Table 4 were also tested against a non-tumoral liver cell line (Chang liver). The cell viability of HeLa, HepG2 and Chang liver cells was determined by the MTT assay. Briefly, exponentially growing cells were plated in 96-well plates at a density of 1×10^3, 8×10^3 and 5×10^3 cells/well respectively and incubated for 24 h before treatment. The grown medium was replaced with one contained the tested compounds dissolved in DMSO (final DMSO concentration <0.1%) at different concentrations, in triplicate wells, and cells were incubated for 72 h. After incubation with the compounds, the medium was removed and MTT solution (0.5 mg/ml, 100 μl) was added to each well and the plates were incubated again for 1 h. DMSO (100 μl) was then added to dissolve the formazan crystals and the plates were immediately read at 550 nm on an ELISA plate reader (Tecan Sunrise MR20-301, TECAN, Austria). For the Jurkat cells, the cell viability was determined by the XTT assay. Briefly, exponentially growing cells were plated in 96-well plates at a density of 5.5×10^3 cells/well, treated with different concentrations of compounds in triplicate and incubated for 72 h. After incubation with the compounds the XTT labeling mixture (100 μl) were added to each of the wells and after a 4 h incubation period the plates were read at 450 nm on an ELISA plate reader. […] Known for its cytotoxic activity, betulinic acid 2 was used as a positive control in this experimentation. […] All the IC50 results represent an average of a minimum of three experiments and were expressed as means±standard deviation (SD).

Chang liver cells = assay: Cell cycle analysis by flow cytometry (FACS, PI), Chang liver; assay type: cell-based, human; details: for effect on cell cycle in non-malignant cell line: IC80 values determined for HepG2, 72 h; for Phase of cell cycle (% of cells) G0/G1 / Phase of cell cycle (% of cells) G2/M / Phase of cell cycle (% of cells) S: compound at IC80 determined for HepG2, 72 h
Procedure: The effects on the cell cycle of some of these compounds were assessed through flow cytometry by using a fluorescence-activated cell sorter (FACS) (Table 5 below). For this assay 2.3×10^5 HepG2 cells/well, 2.9×10^4 HeLa cells/well, 1.6×10^5 Jurkat cells/well and 1.4×10^5 Chang liver cells/well were plated in 6 well plates with 2 ml of medium. The number of cells was determined by the relationship number of cells/area wells, considering the number of cells that were cultured in 96-well plates. […] Following 72 h. of incubation, cells were harvested by mild trypsinization, collected by centrifugation and stained in ice-cold Tris-buffered saline (TBS), containing 1 mg/ml PI, 10 mg/ml RNAse free of DNAase and 0.1% Igepal CA-630 for 1 h at 4° C. FACS analysis was carried out at 488 nm in an Epics XL flow cytometer (Coulter Corporation, Hialeah, Fla.). Data from 8×10^3 cells were collected and analyzed using Multicycle program (Phoenix Flow Systems, San Diego, Calif.). All experiments were performed three times with three replicates per experiment. […] To explore the selectivity of the effect on tumor cells, we also tested compounds 20, 44 and 46 in a non-malignant cell line.

[2] = system: HepG2 (human hepatocellular carcinoma); assay: Cytotoxic activity, MTT assay, HepG2; assay type: cell-based; details: 72 h, mean ±SD
Summary of the method: (§2)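 HepG2, HeLa and Chang liver cells (8×10^3, 1×10^3, 5×10^3 cells/well) pre-grown 24 h, treated 72 h in triplicate (DMSO <0.1%), MTT 0.5 mg/ml 1 h, read 550 nm. Jurkat (5.5×10^3 cells/well) treated 72 h, XTT 4 h, read 450 nm. IC50 as mean±SD of at least three experiments.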

Jurkat cells = assay: Apoptosis, Annexin V-FITC/PI FACS, Jurkat; assay type: cell-based, human; details: at IC50, 72 h, FIG. 8
Procedure: Assessment of apoptosis was performed 72 h after treatment with derivatives at their IC50. Briefly, the same number of HepG2, HeLa, Jurkat and Chang liver cells as in the cell cycle assay were treated with compounds 20, 44, 46 and betulinic acid 2, as described above. Cells were collected washed once in ice-sold binding buffer (10 mM HEPES/NaOH, pH 7.4, 140 mM NaCl, 2.5 mM CaCl2) and ressuspended in the same buffer (95 μl) at a maximum, of 8×10^5 cells/ml. Annexin V-FITC conjugate (1 μg/ml) was added and incubated for 30 min at room temperature in darkness. Just before FACS analysis, cells were stained with 20 μl of […]. Approximately 1×10^4 cells were analysed for each histogram and experiments were performed three times with triplicates per experiment. FACS analysis using Annexin V-FITC staining and PI accumulation was used to differentiate early apoptotic cells (Annexin V^+ and PI^−) from necrotic or late apoptotic cells (Annexin V^+ and PI^+). […] In comparison with untreated controls, compound 44 treatment of HepG2 cells generated apoptosis in 53% of cells (42% of early apoptosis and 11% of late apoptosis), compound 46 generated apoptosis in 38% of cells (28% of early apoptosis plus 10% late apoptosis) and compound 20 induced apoptosis in 29% of cells (22% of early apoptosis plus 7% late apoptosis) (FIG. 8).

HeLa cells = assay: Cell cycle analysis by flow cytometry (FACS, PI), HeLa; assay type: cell-based, human; details: compound at its IC50, 72 h
Procedure: as §1

Jurkat (human leukemia) = assay: Cytotoxic activity, XTT assay, Jurkat; assay type: cell-based; details: 72 h, mean ±SD
Summary of the method: as §2

SMILES	Phase of cell cycle (% of cells) G0/G1 (HepG2 cells)	Phase of cell cycle (% of cells) G2/M (HepG2 cells)	Phase of cell cycle (% of cells) S (HepG2 cells)	decrease in the percentage of cells in the G0/G1 phase (HepG2 cells)	increase in the population in S phase (HepG2 cells)	IC50 [1]	effect on cell cycle in non-malignant cell line (Chang liver cells)	Phase of cell cycle (% of cells) G0/G1 (Chang liver cells)	Phase of cell cycle (% of cells) G2/M (Chang liver cells)	Phase of cell cycle (% of cells) S (Chang liver cells)	IC50 [2]	effectiveness at inducing apoptosis (Jurkat cells)	Phase of cell cycle (% of cells) G0/G1 (HeLa cells)	Phase of cell cycle (% of cells) G2/M (HeLa cells)	Phase of cell cycle (% of cells) S (HeLa cells)	IC50 (Jurkat (human leukemia))
C=C(C)[C@@H]1CC[C@]2(CO)CC[C@]3(C)[C@H](CC[C@@H]4[C@@]5(C)CC[C@H](OC(=O)n6ccnc6)C(C)(C)[C@@H]5CC[C@]43C)[C@@H]12 [Compound 20, 28-hydroxy-lup-20(29)-en-3β-yl-1H-imidazole-1-carboxylate]	49.4 ± 1.2 % of cells	14.5 ± 0.8 % of cells	36.1 ± 0.8 % of cells	12%	17%	60.7 ± 3.8 µM	no effect	68.6 ± 4.2 % of cells	9.3 ± 1.3 % of cells	22.0 ± 3.0 % of cells	2 ± 0.4 µM	extremely effective	50.6 ± 1.3 % of cells	13.0 ± 1.4 % of cells	36.4 ± 2.4 % of cells	11.1 ± 1.3 µM
C=C(C)[C@@H]1CC[C@]2(C(=O)n3ccnc3)CC[C@]3(C)[C@H](CC[C@@H]4[C@@]5(C)CCC(=O)C(C)(C)[C@@H]5CC[C@]43C)[C@@H]12 [Compound 44, 28-(1H-imidazol-1-yl)-lup-20(29)-en-3,28-dione]	45.6 ± 2.1 % of cells	14.9 ± 1.4 % of cells	39.6 ± 3.6 % of cells	16%	20%	48.8 ± 2.8 µM	no effect	68.2 ± 2.9 % of cells	8.6 ± 0.8 % of cells	23.2 ± 2.5 % of cells	0.8 ± 0.05 µM	most effective	53.1 ± 1.1 % of cells	13.8 ± 1.1 % of cells	33.1 ± 0.9 % of cells	1.4 ± 0.2 µM
C=C(C)[C@@H]1CC[C@]2(C(=O)n3ccnc3)CC[C@]3(C)[C@H](CC[C@@H]4[C@@]5(C)C=CC(=O)C(C)(C)[C@@H]5CC[C@]43C)[C@@H]12 [Compound 46, 28-(1H-imidazol-1-yl)-lup-1,20 (29)-dien-3,28-dione]	54.7 ± 1.5 % of cells	14.3 ± 1.0 % of cells	30.7 ± 0.6 % of cells	7%	12%	55.9 ± 4.6 µM	no effect	68.2 ± 4.9 % of cells	9.2 ± 1.4 % of cells	22.6 ± 3.8 % of cells	1.7 ± 0.2 µM	extremely effective	64.6 ± 2.4 % of cells	9.7 ± 1.3 % of cells	25.6 ± 1.5 % of cells	2.3 ± 0.3 µM
